# Measured values as given in patent publication US10526316B2, “Quinoxaline and pyridopyrazine derivatives as PI3Kβ inhibitors” (Janssen Pharmaceutica NV, priority 2015, dated 2020).
# pIC50, pKd: −log10 of the molar value. Where two headings read alike, the source gives them in different places.
# What was measured:
# [1] = system: Akt phosphorylated at Thr308 in PC-3 cells; test: Cellular assay: phosphorylation of Akt at Thr308 in PC-3 cells (MSD ELISA); type: cell-based; conditions: PC-3 cells, 60 min compound incubation, MSD ELISA, read-out: IC50 pAkt_Thr308
# Procedure, shortened: (§1)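 Electrochemiluminescent sandwich ELISA read-out: phospho-specific capture (Ser473 or Thr308), Sulfo-tag anti-total Akt detection, signal proportional to phospho-Akt. Cells treated 60 min at 37° C with compound, DMSO 0.3%. IC50 fitted from five concentrations.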
# PI3Kβ = molecular target: T1, PI3Kβ (Homo sapiens, UniProt P42338); test: Enzyme binding assay (KINOMEscan, DiscoveRx); conditions: PIK3Cβ_h, read-out: Kd PIK3Cβ_h
# T1 construct: purchased DiscoveRx Corporation, San Diego (contract service, KINOMEscan)
# Procedure, shortened: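 KINOMEscan binding platform; read-out is the inhibitor binding constant Kd (nM).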
# PI3Kδ = molecular target: T2, PI3Kδ (Homo sapiens, UniProt O00329); test: Enzyme binding assay (KINOMEscan, DiscoveRx); conditions: PIK3Cδ_h
# T2 construct: purchased DiscoveRx Corporation, San Diego (contract service, KINOMEscan)
# T2 sequence (O00329 1-1044): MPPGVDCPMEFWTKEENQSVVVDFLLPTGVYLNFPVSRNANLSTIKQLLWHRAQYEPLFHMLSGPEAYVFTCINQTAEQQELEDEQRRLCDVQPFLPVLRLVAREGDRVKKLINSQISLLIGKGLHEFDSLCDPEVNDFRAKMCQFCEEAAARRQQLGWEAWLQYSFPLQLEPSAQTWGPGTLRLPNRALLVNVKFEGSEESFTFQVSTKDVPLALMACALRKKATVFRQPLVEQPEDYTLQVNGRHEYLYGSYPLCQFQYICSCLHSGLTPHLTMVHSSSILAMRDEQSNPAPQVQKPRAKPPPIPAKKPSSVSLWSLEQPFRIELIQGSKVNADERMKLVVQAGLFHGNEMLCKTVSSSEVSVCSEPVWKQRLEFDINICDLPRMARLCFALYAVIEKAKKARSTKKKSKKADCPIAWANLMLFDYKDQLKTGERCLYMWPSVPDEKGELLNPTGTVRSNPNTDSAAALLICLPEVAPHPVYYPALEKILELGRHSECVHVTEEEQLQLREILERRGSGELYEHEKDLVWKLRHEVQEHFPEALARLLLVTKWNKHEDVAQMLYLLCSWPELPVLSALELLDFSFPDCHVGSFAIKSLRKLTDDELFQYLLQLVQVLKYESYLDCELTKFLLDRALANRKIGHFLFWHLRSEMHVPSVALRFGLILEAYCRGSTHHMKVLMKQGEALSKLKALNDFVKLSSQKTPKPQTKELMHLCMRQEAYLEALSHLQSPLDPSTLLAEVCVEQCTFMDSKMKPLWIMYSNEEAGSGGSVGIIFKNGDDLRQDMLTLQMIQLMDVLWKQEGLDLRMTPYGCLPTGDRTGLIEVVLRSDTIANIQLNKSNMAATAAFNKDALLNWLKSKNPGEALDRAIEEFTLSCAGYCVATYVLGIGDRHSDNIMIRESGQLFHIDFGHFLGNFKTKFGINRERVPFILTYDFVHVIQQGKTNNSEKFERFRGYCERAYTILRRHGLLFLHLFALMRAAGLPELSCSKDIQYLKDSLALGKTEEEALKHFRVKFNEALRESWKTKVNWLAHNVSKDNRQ
# Procedure, shortened: (§2)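 KINOMEscan readout; values are kinase binding affinities.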
# [2] = system: Akt phosphorylated at Ser473 in PC-3 cells; test: Cellular assay: phosphorylation of Akt at Ser473 in PC-3 cells (MSD ELISA); type: cell-based; conditions: PC-3 cells, 60 min compound incubation, MSD ELISA, read-out: IC50 pAkt_S473
# Procedure, shortened: as §1
# kinase enzymes [3] = molecular target: T3, kinase enzymes (Homo sapiens, UniProt P48736); test: Enzyme binding assay (KINOMEscan, DiscoveRx), further kinases of Table A; conditions: PIK3Cγ_h
# T3 construct: purchased DiscoveRx Corporation, San Diego (contract service, KINOMEscan)
# Procedure, shortened: as §2
# kinase enzymes [4] = molecular target: T4, kinase enzymes (Homo sapiens, UniProt P42345); test: as above; conditions: MTOR_h
# T4 construct: purchased DiscoveRx Corporation, San Diego (contract service, KINOMEscan)
# Procedure, shortened: as §2
# kinase enzymes [5] = molecular target: T5, kinase enzymes (Homo sapiens, UniProt P42336); test: as above; conditions: PIK3Cα_h
# T5 construct: purchased DiscoveRx Corporation, San Diego (contract service, KINOMEscan)
# Procedure, shortened: as §2
# T1 sequence (P42338 whole entry): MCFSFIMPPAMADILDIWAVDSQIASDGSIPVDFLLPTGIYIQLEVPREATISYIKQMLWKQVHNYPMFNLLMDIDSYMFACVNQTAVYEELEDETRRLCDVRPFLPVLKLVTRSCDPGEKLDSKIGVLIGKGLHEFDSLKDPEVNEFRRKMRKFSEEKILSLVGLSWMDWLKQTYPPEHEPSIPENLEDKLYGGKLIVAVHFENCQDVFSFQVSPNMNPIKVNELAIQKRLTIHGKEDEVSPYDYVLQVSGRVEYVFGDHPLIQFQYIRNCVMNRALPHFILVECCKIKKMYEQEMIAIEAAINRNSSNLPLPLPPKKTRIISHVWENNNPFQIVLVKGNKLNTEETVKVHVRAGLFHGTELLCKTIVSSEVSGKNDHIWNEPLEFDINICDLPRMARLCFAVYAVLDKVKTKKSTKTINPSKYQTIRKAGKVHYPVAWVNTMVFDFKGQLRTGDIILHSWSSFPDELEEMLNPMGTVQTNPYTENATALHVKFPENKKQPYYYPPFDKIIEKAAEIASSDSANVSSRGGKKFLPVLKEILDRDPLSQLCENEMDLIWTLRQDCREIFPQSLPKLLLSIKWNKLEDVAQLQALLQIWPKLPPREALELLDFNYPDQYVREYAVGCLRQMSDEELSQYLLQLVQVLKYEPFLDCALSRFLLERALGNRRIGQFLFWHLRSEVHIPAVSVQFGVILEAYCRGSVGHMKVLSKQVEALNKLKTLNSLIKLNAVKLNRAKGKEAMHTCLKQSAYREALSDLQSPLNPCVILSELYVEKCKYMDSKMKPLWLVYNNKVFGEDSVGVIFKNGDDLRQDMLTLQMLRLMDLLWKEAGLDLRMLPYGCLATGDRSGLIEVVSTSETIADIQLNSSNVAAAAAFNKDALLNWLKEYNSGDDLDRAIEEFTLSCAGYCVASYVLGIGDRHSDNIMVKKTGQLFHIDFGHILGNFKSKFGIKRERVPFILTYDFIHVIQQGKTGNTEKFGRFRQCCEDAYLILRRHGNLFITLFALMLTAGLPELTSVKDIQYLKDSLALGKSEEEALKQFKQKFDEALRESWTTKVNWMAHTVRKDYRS
# T5 sequence (P42336 whole entry): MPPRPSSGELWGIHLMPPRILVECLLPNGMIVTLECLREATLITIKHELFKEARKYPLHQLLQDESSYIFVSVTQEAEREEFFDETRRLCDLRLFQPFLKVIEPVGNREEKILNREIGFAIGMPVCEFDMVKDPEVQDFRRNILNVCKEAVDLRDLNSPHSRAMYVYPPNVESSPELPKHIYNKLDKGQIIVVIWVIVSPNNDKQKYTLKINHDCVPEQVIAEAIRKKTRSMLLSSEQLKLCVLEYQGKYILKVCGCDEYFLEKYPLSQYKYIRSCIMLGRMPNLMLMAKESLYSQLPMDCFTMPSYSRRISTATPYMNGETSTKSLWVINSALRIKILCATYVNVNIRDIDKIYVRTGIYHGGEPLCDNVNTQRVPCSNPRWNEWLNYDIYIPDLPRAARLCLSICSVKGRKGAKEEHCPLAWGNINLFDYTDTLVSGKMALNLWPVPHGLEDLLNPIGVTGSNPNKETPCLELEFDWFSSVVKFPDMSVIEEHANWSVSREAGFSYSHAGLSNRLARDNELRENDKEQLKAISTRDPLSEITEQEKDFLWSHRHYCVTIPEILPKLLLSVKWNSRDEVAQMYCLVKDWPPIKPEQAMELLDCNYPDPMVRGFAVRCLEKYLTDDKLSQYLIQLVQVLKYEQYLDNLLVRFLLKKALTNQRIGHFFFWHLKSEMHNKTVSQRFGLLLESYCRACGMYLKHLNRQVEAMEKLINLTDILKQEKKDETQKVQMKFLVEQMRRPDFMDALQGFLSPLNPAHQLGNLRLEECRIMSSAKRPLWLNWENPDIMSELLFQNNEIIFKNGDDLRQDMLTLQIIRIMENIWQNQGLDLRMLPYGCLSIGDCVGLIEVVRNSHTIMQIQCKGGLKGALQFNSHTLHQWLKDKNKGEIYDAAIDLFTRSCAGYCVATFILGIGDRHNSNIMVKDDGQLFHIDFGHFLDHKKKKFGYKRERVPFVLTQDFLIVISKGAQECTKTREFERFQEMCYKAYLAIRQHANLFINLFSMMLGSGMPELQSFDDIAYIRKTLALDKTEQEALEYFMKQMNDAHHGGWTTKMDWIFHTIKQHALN
# T3 sequence (P48736 whole entry): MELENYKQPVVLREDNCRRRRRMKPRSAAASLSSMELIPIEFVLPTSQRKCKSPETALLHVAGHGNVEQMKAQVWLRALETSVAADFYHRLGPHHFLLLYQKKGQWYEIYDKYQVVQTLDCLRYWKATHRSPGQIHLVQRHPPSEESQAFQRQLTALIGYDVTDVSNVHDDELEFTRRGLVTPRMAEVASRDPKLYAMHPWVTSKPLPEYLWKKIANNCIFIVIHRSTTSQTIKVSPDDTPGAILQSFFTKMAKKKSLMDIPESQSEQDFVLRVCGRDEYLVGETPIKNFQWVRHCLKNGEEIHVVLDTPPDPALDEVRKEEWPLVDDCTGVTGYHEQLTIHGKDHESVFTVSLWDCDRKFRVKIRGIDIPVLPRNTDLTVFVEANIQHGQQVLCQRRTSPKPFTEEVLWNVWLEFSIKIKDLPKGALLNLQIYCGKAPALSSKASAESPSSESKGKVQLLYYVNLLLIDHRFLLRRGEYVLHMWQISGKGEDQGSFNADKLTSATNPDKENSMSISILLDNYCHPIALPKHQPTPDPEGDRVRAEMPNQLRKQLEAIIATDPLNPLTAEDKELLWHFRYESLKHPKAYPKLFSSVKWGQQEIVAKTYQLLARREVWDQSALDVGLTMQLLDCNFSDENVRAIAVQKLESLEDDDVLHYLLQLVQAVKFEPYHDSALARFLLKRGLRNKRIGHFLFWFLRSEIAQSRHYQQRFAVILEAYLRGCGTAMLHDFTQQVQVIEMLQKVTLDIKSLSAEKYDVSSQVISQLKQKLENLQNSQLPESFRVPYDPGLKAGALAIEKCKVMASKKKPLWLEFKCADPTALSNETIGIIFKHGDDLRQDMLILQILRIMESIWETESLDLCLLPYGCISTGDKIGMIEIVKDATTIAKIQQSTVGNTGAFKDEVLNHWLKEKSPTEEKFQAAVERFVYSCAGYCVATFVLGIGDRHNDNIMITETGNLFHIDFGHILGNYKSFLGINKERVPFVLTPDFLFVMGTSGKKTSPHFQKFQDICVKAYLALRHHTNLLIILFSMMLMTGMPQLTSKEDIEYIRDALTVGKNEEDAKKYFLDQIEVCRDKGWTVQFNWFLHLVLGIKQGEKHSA
SMILES,pIC50 [1],melting point [°C],pKd (PI3Kβ),pKd (PI3Kδ),pIC50 [2],pKd (kinase enzymes [3]),pKd (kinase enzymes [4]),pKd (kinase enzymes [5]),"pIC50 ([1]; Homo sapiens, PC-3, 1 h)","pIC50 ([2]; Homo sapiens, PC-3, 1 h)"
"CC(Oc1ccc(F)c(F)c1)c1cc(C(=O)N2CC[C@H](N(C)C)C2)cc2ncc(N3CCOCC3)nc12 (single isomer, unassigned) [Compound 363a]",,80,8.00,6.38,,4.57,< 4.52,4.96,7.13,~6.90
CC(Nc1cc(F)cc(F)c1)c1cc(C(=O)O)cc2ncc(N3CCOCC3)nc12 (centres unmarked) [Compound 83a],< 6.29,240,8.70,6.80,< 6.29,6.09,5.88,6.95,,
"COCCNC(=O)c1cc(C(C)Nc2cc(F)cc(F)c2)c2nc(N3CCOCC3)cnc2c1 (single isomer, unassigned) [Compound 204]",< 6.29,80,5.97,< 4.52,< 6.29,4.84,< 4.52,< 4.52,,
CC(Nc1cccc(Cl)c1)c1cc(C(=O)N2CCOCC2)cc2ncc(N3CCOCC3)nc12 (centres unmarked) [Compound 119],,80,8.70,6.31,,4.93,< 4.52,5.65,7.09,6.98
"CC(Nc1cc(F)c(F)c(F)c1)c1cc(C(=O)NCCO)cc2ncc(N3CCOCC3)nc12 (single isomer, unassigned) [Compound 213]",7.60,80,8.70,6.57,7.48,5.49,5.11,5.68,,
"CC(Nc1ccc(F)c(F)c1)c1cc(C(=O)NCC2CCCN2)cc2ncc(N3CCOCC3)nc12 (single isomer, unassigned) [Compound 329a]",8.22,121,10.00,7.59,7.85,5.56,4.64,6.47,,
CC(Nc1ccc(F)c(F)c1)c1cc(CO)cc2ncc(N3CCOCC3)nc12 (centres unmarked) [Compound 303],,138,8.05,6.34,,5.41,4.73,5.45,7.10,7.06
"CC(Nc1ccc(F)c(F)c1)c1cc(C(=O)N2C[C@@H](C)N[C@@H](C)C2)cc2ncc(N3CCOCC3)nc12 (single isomer, unassigned) [Compound 357a]",,116,5.48,4.79,,< 4.52,< 4.52,4.64,< 6.29,< 6.29
"CC(Nc1cc(F)cc(F)c1)c1cc(C(=O)NC[C@@H](C)O)cc2ncc(N3CCOCC3)nc12 (single isomer, unassigned) [Compound 201]",7.59,70,8.70,6.15,7.38,5.35,4.78,5.84,,
CC(Nc1cccc(C#N)c1)c1cc(C(=O)N2CCOCC2)cc2ncc(N3CCOCC3)nc12 (centres unmarked) [Compound 131],,80,7.96,5.60,,4.70,< 4.52,5.50,6.44,6.30

# The remaining lines, values ahead:
pIC50 [1],melting point [°C],pKd (PI3Kβ),pKd (PI3Kδ),pIC50 [2],pKd (kinase enzymes [3]),pKd (kinase enzymes [4]),pKd (kinase enzymes [5]),"pIC50 ([1]; Homo sapiens, PC-3, 1 h)","pIC50 ([2]; Homo sapiens, PC-3, 1 h)",SMILES
7.21,80,8.22,6.00,6.98,5.48,< 4.52,5.50,,,"Cc1cc(C2CCCN2c2cc(F)cc(F)c2)c2nc(N3CCOCC3)cnc2c1 (single isomer, unassigned) [Compound 106]"
,80,5.40,< 4.52,,< 4.52,< 4.52,< 4.52,< 6.29,< 6.29,Cc1c(N2CCCC2c2cc(C(=O)N(C)C)cc3ncc(N4CCOCC4)nc23)cccc1C(F)(F)F (centres unmarked) [Compound 55]
,80,8.52,6.58,,4.75,< 4.52,5.87,7.26,6.96,CC(Nc1cccc(F)c1)c1cc(C(=O)N2CCOCC2)cc2ncc(N3CCOCC3)nc12 (centres unmarked) [Compound 104]
,315,7.37,5.49,,5.82,4.82,5.27,6.37,< 6.29,CN(C)C(=O)c1cc(C(CO)N(C)c2cccc(F)c2)c2nc(N3CCOCC3)cnc2c1 (centres unmarked) [Compound 301]
8.05,218,9.40,7.12,7.74,5.94,4.58,6.56,,,"CC(Nc1cc(F)cc(F)c1)c1cc(C(=O)N(C)C)cc2ncc(N3CCOCC3)nc12 (single isomer, unassigned) [Compound 12]"
,100,9.70,7.17,,5.74,4.63,6.08,8.22,8.15,CNCCNC(=O)c1cc(C(C)Nc2cccc(F)c2)c2nc(N3CCOCC3)cnc2c1 (centres unmarked) [Compound 282]
,218,7.92,6.12,,4.74,4.92,5.15,6.85,6.84,O=C(NCCO)c1cc(NCc2cccc(F)c2)c2nc(N3CCOCC3)cnc2c1 [Compound 230]
7.74,303,9.00,6.73,7.30,5.16,< 4.52,5.79,,,"CCN1CCN(C(=O)c2cc(C(C)Nc3cccc(F)c3)c3nc(N4CCOCC4)cnc3c2)CC1 (single isomer, unassigned) [Compound 114]"
,80,8.70,7.10,,6.17,4.77,7.19,8.22,7.89,O=C(NCCCO)c1cc(C2CCCN2c2cc(F)cc(F)c2)c2nc(N3CCOCC3)cnc2c1 (centres unmarked) [Compound 66]
,80,9.00,6.76,,6.20,4.63,6.63,7.18,7.13,CN(C)C(=O)c1cc(C2CCCN2c2cc(F)cc(C=O)c2)c2nc(N3CCOCC3)cnc2c1 (centres unmarked) [Compound 44]
,80,9.00,7.54,,6.08,< 4.52,6.97,8.22,8.30,CN(C)C(=O)c1cc(C2CCCN2c2cccc(F)c2)c2nc(N3CCOCC3)cnc2c1 (centres unmarked) [Compound 28]
< 6.29,307,5.99,< 4.52,< 6.29,< 5.00,< 4.52,< 4.52,,,"CCN1CCN(C(=O)c2cc(C(C)Nc3cccc(F)c3)c3nc(N4CCOCC4)cnc3c2)CC1 (single isomer, unassigned) [Compound 113]"
